Patent US20210386738A1, “COMBINATION OF PRMT5 INHIBITORS AND BCL-2 INHIBITORS” (GLAXOSMITHKLINE INTELLECTUAL PROPERTY DEVELOPMENT LIMITED, priority 2018, published 2021)
pEC50, pIC50: −log10 of the molar value.

Experiments:
lymphoma cell line DB = test: Serial dilutions: fixed ABT-199 concentration with Compound A titration, six-day cell proliferation; format: cell-based
Method: Serial dilutions were performed for the combination to ascertain the change in gIC50, gIC100 and dEC50 when the inhibitors are used together in a PRMT5 inhibitor cell proliferation. A first compound plate was prepared where PRMT5 inhibitor, Compound A, was prepared with a 20-point, two-fold dilution series of compound A from column 1 to 20. A second compound plate was prepared using the BCL-2 inhibitor ABT-199. ABT-199 was titrated in a 16-point 2-fold dilution series from row A to Q. A third plate was then created by added equal volume of 12 ul (ABT-199) from each well in the second plate into the corresponding well in the first plate. The third plate comprised rows from A to Q, each row comprising a fixed concentration of ABT-199. Columns 1-20 comprised varying concentrations of compound A from the 20-point dilution. Plates were incubated for six days at the conditions described above. Lymphoma cell line DB was treated with the solution in each of the wells. Cell growth was measured using CellTiter-Glo (Promega) and luminescence signal was detected with a BioTek Synergy Neo microplate reader. A plate of untreated cells was read at the time of compound/biologic addition to determine the T0 value representing the starting number of cells. Data were fit with a four-parameter equation to generate a concentration response curve for each row using Assay Client software. A comparison was made across each row in the third plate to determine, when keeping a fixed concentration of ABT-199, what concentration of compound A is needed to reach the gIC50, gIC100 or dEC50 respectively and the fold change compared to treating the same cell with compound A alone.
Tables 4a-c show the results of the above serial dilution experiments wherein ‘fold change’ is the difference between the amount of compound A needed to achieve gIC50, gIC100 or dEC50 respectively, compared to the amount of compound A needed to achieve gIC50, gIC100 or dEC50 respectively when compound A is given as a single agent.

Z-138 = test: Standard 6-day growth-death assay, Z-138 as control for Compound A; format: cell-based; conditions: single agent or fixed 1:1 combination
Method: The majority cell lines were obtained from GSK BioCat group, American Type Culture Collection (ATCC), or the Deutsche Sammlung von Mikroorganismen and Zellbulturen (DSMZ). All cell lines were maintained in growth medium in T75 cm^2 flasks, incubated at 37° C. with 5% CO2 and split every 3 to 4 days. Growth media conditions and cell line information are detailed in Table 1. Cells were counted using the Vi-Cell Analyzer (Beckman Coulter ViCell) to obtain viable cell counts.
Optimal cell seeding density was determined for all cell lines by monitoring proliferation over a range of seeding densities in 384-well format and identifying the seeding density at which cells grew logarithmically throughout six days. 50 uL of cells per well were plated in 384-well plates at the optimal seeding density in preferred supplemented culture media. Three plates were prepared per cell line and incubated overnight at 37° C. in 5% CO2.
In these studies, lymphoma cell lines were treated with PRMT5 inhibitor, compound A and BCL-2 targeted inhibitor, ABT-199 single agent or in combination using a fixed 1:1 ratio of each inhibitor over a 20-point titration. For compound A single and fixed 1:1 ratio combination with ABT-199 cell proliferation assay, cells were treated in duplicate with a 20-point, two-fold dilution series of Compound A, ABT-199 (≥14 μM top dose) single or combo treatment, and ≤0.15% DMSO final concentration. Plates were incubated for six days at the conditions described above. Cell growth was measured using CellTiter-Glo (Promega) and luminescence signal was detected with a BioTek Synergy Neo microplate reader. A plate of untreated cells was read at the time of compound/biologic addition to determine the T0 value representing the starting number of cells. Data were fit with a four-parameter equation to generate a concentration response curve using Assay Client software.
Results were background corrected by subtraction of values from wells containing no cells, expressed as a percentage of the T0 value (value at time=0), and plotted against compound concentration. The T0 value was normalized to 100% and represents the number of cells present at the time of compound addition. The cellular response was determined for each compound using a 4- or 6-parameter curve fit of cell viability against concentration using Assay Client software. Growth IC50 (gIC50) values correspond to the concentration intersecting the mid-point of the growth window (between DMSO and T0 values). Growth IC100 (gIC100) values correspond to the concentration at which 100% growth inhibition is achieved, based on the growth window. The Ymin−T0 value, a measure of net population cell growth or death, is calculated by subtracting the T0 value (100%) from the Ymin value (%) that is determined from the fit of the concentration response curve. Death EC50 (dEC50) values correspond to the concentration at which 50% net cell death is observed.
Individual curves were quality checked for three criteria: outlier data points, cell growth (population doubling ≥1.5), and proper curve fitting. […] Individual curves were QC checked for outlier data points, cell growth (population doubling ≥1.5), and proper curve fitting. Obvious outlier data points were omitted only as needed to ensure proper curve fit.
For fixed ratio screening, combination activity was assessed by the fold change in gIC50 compared to the 2 single agent curves by dividing the compound ratio as necessary. Combinations showing >3-fold and >5-fold change from single agent are described as below: • Fold changes ≥5 are considered to represent strong synergy. • Fold changes between 3.0 and 4.9 are considered to represent weak synergy. • Fold changes <3 are considered to represent no synergy.

[1] = fixed ABT-199 with compound A titration, vs compound A alone

CC1(C)CCC(CN2CCN(c3ccc(C(=O)NS(=O)(=O)c4ccc(NCC5CCOCC5)c([N+](=O)[O-])c4)c(Oc4cnc5[nH]ccc5c4)c3)CC2)=C(c2ccc(Cl)cc2)C1 [ABT-199, venetoclax, reference compound]
pEC50 (lymphoma cell line DB; 144 h, single agent, six days, read-out: dEC50): < 5.13 | pIC50 (lymphoma cell line DB; 144 h, single agent, six days, read-out: gIC50): 5.19 | concentration of ABT-199 at which ≥3 fold change was achieved in dEC50 (lymphoma cell line DB; fixed ABT-199 with compound A titration): 1833 nM | concentration of ABT-199 at which ≥3 fold change was achieved in gIC50 (lymphoma cell line DB; [1]): 115 nM | concentration of ABT-199 at which ≥3 fold change was achieved in gIC100 (lymphoma cell line DB; [1]): 458 nM | gIC100 (lymphoma cell line DB; single agent, six days): 7.331 µM | pEC50 (Z-138; Homo sapiens, 144 h, average of n=2, read-out: dEC50): 5.51 | pIC50 (Z-138; Homo sapiens, 144 h, average of n=2, read-out: gIC50): 7.85 | Ymin-T0 (Z-138; average of n=2): −78% | gIC100 (Z-138; average of n=2): 1119 nM
